From US10722501B2 (BAYER AKTIENGESELLSCHAFT, priority 2016, dated 2020)

What follows are compounds tested against T1, recombinant full-length human prolyl endopeptidase (PREP) (Homo sapiens, UniProt P48147) (assay: Biochemical human prolyl endopeptidase (PREP) assay with fluorescently labelled substrate). Details: substrate Z-Gly-Pro-AMC 50 μM, 32° C., 60 min; some as mean values from multiple independent determinations.
T1 construct: To recombinant full-length human prolyl endopeptidase (PREP, R&D-Systems, 4308-SE); purchased R&D-Systems 4308-SE
T1 sequence (P48147 1-710): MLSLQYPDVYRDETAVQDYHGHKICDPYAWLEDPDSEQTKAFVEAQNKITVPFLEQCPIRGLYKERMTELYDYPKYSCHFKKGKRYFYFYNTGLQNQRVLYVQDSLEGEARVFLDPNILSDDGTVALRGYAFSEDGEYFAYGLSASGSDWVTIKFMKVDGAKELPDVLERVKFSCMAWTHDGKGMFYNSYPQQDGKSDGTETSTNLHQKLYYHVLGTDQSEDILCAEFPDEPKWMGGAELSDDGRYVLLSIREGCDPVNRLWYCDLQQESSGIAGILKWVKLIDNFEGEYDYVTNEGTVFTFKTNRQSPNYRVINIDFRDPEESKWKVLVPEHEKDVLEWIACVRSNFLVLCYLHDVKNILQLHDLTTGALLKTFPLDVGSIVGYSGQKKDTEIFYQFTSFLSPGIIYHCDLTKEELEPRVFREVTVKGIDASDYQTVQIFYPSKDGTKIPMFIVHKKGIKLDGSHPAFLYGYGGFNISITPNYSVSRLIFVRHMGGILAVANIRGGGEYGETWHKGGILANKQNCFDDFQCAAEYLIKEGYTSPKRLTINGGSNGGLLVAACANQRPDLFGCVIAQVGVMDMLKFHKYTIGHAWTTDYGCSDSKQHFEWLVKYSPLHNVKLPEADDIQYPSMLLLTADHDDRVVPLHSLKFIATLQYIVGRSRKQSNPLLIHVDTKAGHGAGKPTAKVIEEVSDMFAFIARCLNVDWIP
Procedure, shortened: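 0.4 nM (final, example) recombinant PREP in pH 7.5 Tris buffer with EDTA, GSH, BSA and Brij-35; compounds at 1 nM to 30 μM. Reaction started with 50 μM Z-Gly-Pro-AMC and followed by fluorescence (ex 360/em 465 nm) at 32° C for 60 min. IC50 interpolated from percent activity based on initial slopes.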

Point of comparison: `CC1Cc2nn(Cc3ccc(F)c(Cl)c3)c(=O)n2C(C(=O)N2CC(F)C2)C1` (racemic) [Example 340, (5RS,7RS)-2-(3-Chloro-4-fluorobenzyl)-5-[(3-fluoroazetidin-1-yl)carbonyl]-7-methyl-5,6,7,8-tetrahydro[1,2,4]triazolo[4,3-a]pyridin-3(2H)-one], IC50 0.48 nM. Against it:
- O=C([C@@H]1CCCc2nn(Cc3ccc(F)cc3)c(=O)n21)N1CCC(F)(F)C1 [Example 451, (5S)-5-[(3,3-Difluoropyrrolidin-1-yl)carbonyl]-2-(4-fluorobenzyl)-5,6,7,8-tetrahydro[1,2,4]triazolo[4,3-a]pyridin-3(2H)-one] — 2.3-fold higher, 1.1 nM
- Cc1ccc(C2(Cn3nc4n(c3=O)[C@H](C(=O)N3CC[C@H](O)C3)CCC4)CC2)cc1 [Example 525, (5S)-5-{[(3S)-3-Hydroxypyrrolidin-1-yl]carbonyl}-2-{[1-(4-methylphenyl)cyclopropyl]methyl}-5,6,7,8-tetrahydro[1,2,4]triazolo[4,3-a]pyridin-3(2H)-one] — 32-fold higher, 15.2 nM
- O=C([C@@H]1CCCc2nn(Cc3ccc(Cl)cn3)c(=O)n21)N1CC(F)C1 [Example 379, (5S)-2-[(5-Chloropyridin-2-yl)methyl]-5-[(3-fluoroazetidin-1-yl)carbonyl]-5,6,7,8-tetrahydro[1,2,4]triazolo[4,3-a]pyridin-3(2H)-one] — 5.2-fold higher, 2.5 nM
- O=C([C@@H]1CCCc2nn(Cc3cncc(Br)c3)c(=O)n21)N1C[C@@H](F)[C@@H](F)C1 [Example 506, (5S)-2-[(5-Bromopyridin-3-yl)methyl]-5-{[(3R,4S)-3,4-difluoropyrrolidin-1-yl]carbonyl}-5,6,7,8-tetrahydro[1,2,4]triazolo[4,3-a]pyridin-3(2H)-one] — 2.5-fold higher, 1.2 nM
- Cc1ccc(Cn2nc3n(c2=O)C(C(=O)N2CCS(=O)(=O)C2)CCC3)cc1 (single isomer, unassigned) [Example 142, (5RS)-5-[(1,1-Dioxido-1,3-thiazolidin-3-yl)carbonyl]-2-(4-methylbenzyl)-5,6,7,8-tetrahydro[1,2,4]triazolo[4,3-a]pyridin-3(2H)-one] — 5.3-fold higher, 2.55 nM
- O=C(C1CC(C(F)(F)F)Cc2nn(Cc3ccnc(C(F)(F)F)c3F)c(=O)n21)N1C[C@@H](F)[C@@H](F)C1 (single isomer, unassigned) [Example 261] — 2.1-fold higher, 1 nM
- O=C([C@@H]1CCCc2nn(CC3CC3)c(=O)n21)N1C[C@@H](F)[C@@H](F)C1 [Example 184, (5S)-2-(Cyclopropylmethyl)-5-{[(3R,4S)-3,4-difluoropyrrolidin-1-yl]carbonyl}-5,6,7,8-tetrahydro[1,2,4]triazolo[4,3-a]pyridin-3(2H)-one] — 9.4-fold higher, 4.5 nM
- N#C[C@@H]1CCCN1C(=O)[C@@H]1CCCc2nn(Cc3csc(C(F)(F)F)n3)c(=O)n21 [Example 367, (2S)-1-{[(5S)-3-Oxo-2-{[2-(trifluoromethyl)-1,3-thiazol-4-yl]methyl}-2,3,5,6,7,8-hexahydro[1,2,4]triazolo[4,3-a]pyridin-5-yl]carbonyl}pyrrolidine-2-carbonitrile] — within 1.5-fold, 0.425 nM
- O=C(C1CCCc2nn(Cc3ccc(Cl)c(C(F)(F)F)c3)c(=O)n21)N1CCCC1 (racemic) [Example 37] — 1.7-fold higher, 0.83 nM
- O=C(C1CCCc2nn(Cc3cccc(Cl)c3)c(=O)n21)N1CCCC1 (racemic) [Example 38, (5RS)-2-(3-Chlorobenzyl)-5-(pyrrolidin-1-ylcarbonyl)-5,6,7,8-tetrahydro[1,2,4]triazolo[4,3-a]pyridin-3(2H)-one] — 2.1-fold higher, 1 nM
- O=C([C@@H]1CCCc2nn(Cc3cncc(Cl)c3)c(=O)n21)N1CC(F)C(F)C1 (mixture of isomers) [Example 548, (5S)-2-[(5-Chloropyridin-3-yl)methyl]-5-{[trans-3,4-difluoropyrrolidin-1-yl]carbonyl}-5,6,7,8-tetrahydro[1,2,4]triazolo[4,3-a]pyridin-3(2H)-one] — 65-fold higher, 31 nM
